Assay results: patent US7256203B2, “Dicationic 2,5-diarylfuran aza-analogs as anti-protozoan agents” (The University of North Carolina at Chapel Hill, priority 2002, dated 2007)
Counter-ions that a name gives are not always drawn. Like-named read-outs stand apart in the source and are kept apart here.

Key:
[1] = tested on: Trypanosoma brucei rhodesiense; test: In vitro anti-protozoan data, T. b. r.; format: cell-based
Plasmodium falciparum = test: In vitro anti-protozoan data, P. f.; format: cell-based
Leishmania donovani = test: In vitro anti-protozoan data, L. d.; format: cell-based
[2] = tested on: STIB900 strain of T. b. r.; test: Mouse model of virulent STIB900 strain of T. b. r.; format: in vivo
T. b. r. = test: CNS model in mice (2nd stage human African trypanosomiasis); format: in vivo; details: through day 120 of an experiment slated for 180 days
[3] = Trypanosoma brucei, RHODESIENSE, in vitro, read-out: T. b. r. IC50
[4] = Plasmodium falciparum, in vitro, read-out: IC-50 values versus Plasmodium falciparum (p.f.)
[5] = Plasmodium falciparum, in vitro, read-out: P. f. IC50
[6] = in vitro, read-out: T. b. r. IC50

SMILES | IC50 [1, 3] [µM] | IC50 (Plasmodium falciparum; [5]) [µM] | IC50 (Leishmania donovani; Leishmania donovani) [µM] | melting point | further results
N=C(NO)c1ccc(-c2ccc(-c3ccc(C(=N)NO)cn3)o2)cc1 [Compound 4, N-Hydroxy-6-{5-[4-(N-hydroxycarbamimidoyl)-phenyl]-furan-2-yl}-nicotinamidine] | 120 | 0.0043 | > 195 | – | IC50 (Plasmodium falciparum; [4]): < 0.01 µM
CONC(=N)c1ccc(-c2ccc(-c3ccc(C(=N)NOC)cn3)o2)cc1 [Compound 5, N-Methoxy-6-{5-[4-(N-methoxy-carbamimidoyl)-phenyl]-furan-2-yl}-nicotinamidine] | 37.1 | 0.0049 | 113 | – | IC50 (Plasmodium falciparum; [4]): < 0.01 µM; cure of virulent STIB900 strain of T. b. r. in a mouse model [2]: cure; parasite free mice in the CNS model (T. b. r.): parasite free mice
N=C(N)c1ccc(-c2ccc(-c3ccc(C(=N)N)cn3)o2)cc1 [Compound 7, 6-[5-(4-Carbamimidoyl-phenyl)-furan-2-yl]-nicotinamidine] | 0.007 | – | 101 | – | IC50 ([1]; Trypanosoma brucei, RHODESIENSE, read-out: IC-50 values versus Trypanosoma brucei rhodesiense (T.b.r.)): < 0.01 µM; IC50 (Plasmodium falciparum; Plasmodium falciparum, read-out: IC-50 values versus Plasmodium falciparum (p.f.)): < 0.01 µM; IC50 (Plasmodium falciparum; Plasmodium falciparum, read-out: P. f. IC50): 0.0065 µM; cure of virulent STIB900 strain of T. b. r. in a mouse model [2]: cure
N=C(NO)c1ccc(-c2ccc(-c3ccc(C(=N)NO)cn3)s2)cc1 [Compound 11, N-Hydroxy-6-{5-[4-(N-hydroxycarbamimidoyl)-phenyl]-thiophen-2-yl}-nicotinamidine] | > 187 | > 10.4 | > 187 | 293 to 295 °C (dec.) | –
CONC(=N)c1ccc(-c2ccc(-c3ccc(C(=N)NOC)cn3)s2)cc1 [Compound 12, N-Methoxy-6-{5-[4-(N-methoxy-carbamimidoyl)-phenyl]-thiophn-2-yl}-nicotinamidine] | – | – | – | – | IC50 [1, 6]: 9.43 µM; IC50 (Plasmodium falciparum; in vitro, read-out: P. f. IC50): 0.133 µM
N=C(NO)c1ccc(-c2ccc(-c3ccc(C(=N)NO)nc3)o2)cc1 [Compound 17, N-Hydroxy-5-{5-[4-(N-hydroxycarbamimidoyl)-phenyl]-furan-2-yl}-pyridine-2-carboxamidine] | 200 | > 11.7 | – | 276 to 279 °C | –
CONC(=N)c1ccc(-c2ccc(-c3ccc(C(=N)NOC)nc3)o2)cc1 [Compound 18, N-Methoxy-5-{5-[4-(N-methoxycarbamimidoyl)-phenyl]-furan-2-yl}-pyridin-2-carboxamidine] | 6.5 | 8.5 | – | 142 to 143 °C | –
CC(=O)ONC(=N)c1ccc(-c2ccc(-c3ccc(C(=N)NOC(C)=O)nc3)o2)cc1 [Compound 19, N -Acetoxy-5-{5-[4-(N-Acetoxycarbamimidoyl)-phenyl]-furan-2-yl}-pyridine-2-carboxamidine] | – | – | – | 267 to 270 °C | –
N=C(N)c1ccc(-c2ccc(-c3ccc(C(=N)N)nc3)o2)cc1 [Compound 20, 5-[5-(4-Carbamimidoyl-phenyl)-furan-2-yl]-pyridine-2-carboxamidine actate salt] | – | – | – | – | IC50 [1, 6]: 0.0031 µM; IC50 (Plasmodium falciparum; in vitro, read-out: P. f. IC50): 0.0183 µM; IC50 (Leishmania donovani): 47 µM
CC(=O)ONC(=N)c1ccc(-c2ccc(-c3ccc(C(=N)NOC(C)=O)cn3)o2)nc1 [Compound 23, 2,5-Bis[5-(N-acetoxycarbamimidoyl)-2-pyridyl)furan] | – | – | – | 299 to 300 °C | –
N=C(N)c1ccc(-c2ccc(-c3ccc(C(=N)N)cn3)o2)nc1 [Compound 24, 2,5-Bis[5-amidine-2-pyridyl)furan] | – | – | – | – | IC50 [1, 6]: 0.021 µM; IC50 (Plasmodium falciparum; in vitro, read-out: P. f. IC50): 0.083 µM; IC50 (Leishmania donovani): 193 µM
CC(=O)ONC(=N)c1ccc(-c2ccc(-c3ccc(C(=N)NOC(C)=O)cc3C)o2)nc1 [Compound 30, N-Acetoxy-6-{5-[4-(N-acetoxycarbamimidoyl)-2-methyl-phenyl]-furan-2-yl}-nicotinamidine] | – | – | – | 203 to 205 °C | –
CC(=O)ONC(=N)c1ccc(Cc2ccc(-c3ccc(C(=N)NOC(C)=O)cn3)o2)cc1 [Compound 37, N-Acetoxy-6-{5-[4-(N-acetoxycarbamimidoyl)benzyl]-furan-2-yl}-nicotinamidine] | – | – | – | 194 to 196 °C | –

The next lines start with results.

IC50 [1, 3] [µM] | IC50 (Plasmodium falciparum; [5]) [µM] | IC50 (Leishmania donovani; Leishmania donovani) [µM] | melting point | SMILES | further results
55.8 | > 0.0102 | 77 | 272 to 274 °C (dec.) | N=C(NO)c1ccc(-c2ccc(-c3ccc(C(=N)NO)cn3)o2)nc1 [Compound 22, 2,5-Bis[5-(N-hydroxycarbamimidoyl)-2-pyridyl)furan] | –
11.1 | 0.00177 | > 166 | – | CONC(=N)c1ccc(-c2ccc(-c3ccc(C(=N)NOC)cn3)o2)nc1 [Compound 27, 2,5-Bis[5-(N-methoxycarbamimidoyl)-2-pyridyl)furan] | IC50 (Plasmodium falciparum; [4]): < 0.01 µM
– | – | – | 196 to 198 °C | Cc1cc(C(=N)NO)ccc1-c1ccc(-c2ccc(C(=N)NO)cn2)o1 [Compound 29, N-Hydroxy-6-{5-[4-(N-hydroxycarbamimidoyl)-2-methyl-phenyl]-furan-2-yl}-nicotinamidine] | –
– | – | – | 230 to 231 °C | N=C(NO)c1ccc(-c2ccc(C=Cc3ccccc3)o2)nc1 [Compound 33, N-Hydroxy-6-(5-styryl-furan-2-yl)-nicotinamidine] | –
– | – | – | 214 to 216 °C | N=C(NO)c1ccc(Cc2ccc(-c3ccc(C(=N)NO)cn3)o2)cc1 [Compound 36, N-Hydroxy-6-{5-[4-(N-hydroxycarbamimidoyl)benzyl]-furan-2-yl}-nicotinamidine] | –
